Data from ChEMBL document CHEMBL3739320, “Synthesis and biological evaluation of novel semi-conservative monocarbonyl analogs of curcumin as anti-inflammatory agents” (Medchemcomm, 2015).
Calls of active or inactive are those of the source. The calls are words filed in the database; no cut-off is given here.

Tests used:
[1] = test system: RAW264.7; experiment: Antiinflammatory activity in LPS-induced mouse RAW264.7 macrophages assessed as suppression of TNF-alpha release pretreated at 10 uM for 2 hrs followed by stimulation with LPS for 22 hrs by ELISA; assay type: functional, cell-based
[2] = Cytotoxicity against human HL-7702 cells at 10 uM after 24 hrs by MTT assay; assay type: cell-based; conditions: l02, 24 h
[3] = test system: Peritoneal macrophage cell; experiment: Antiinflammatory activity in LPS-induced ICR mouse peritoneal macrophages assessed as suppression of TNF-alpha release pretreated for 2 hrs followed by stimulation with LPS for 22 hrs by ELISA; assay type: functional, cell-based
[4] = test system: RAW264.7; experiment: Antiinflammatory activity in LPS-induced mouse RAW264.7 macrophages assessed as suppression of TNF-alpha release pretreated for 2 hrs followed by stimulation with LPS for 22 hrs by ELISA; assay type: functional, cell-based
[5] = test system: Peritoneal macrophage cell; experiment: Antiinflammatory activity in LPS-induced ICR mouse peritoneal macrophages assessed as suppression of IL-6 release pretreated for 2 hrs followed by stimulation with LPS for 22 hrs by ELISA; assay type: functional, cell-based
[6] = test system: RAW264.7; experiment: Antiinflammatory activity in LPS-induced mouse RAW264.7 macrophages assessed as suppression of IL-6 release pretreated for 2 hrs followed by stimulation with LPS for 22 hrs by ELISA; assay type: functional, cell-based
[7] = test system: RAW264.7; experiment: Antiinflammatory activity in LPS-induced mouse RAW264.7 macrophages assessed as suppression of TNF-alpha mRNA level pretreated at 10 uM for 2 hrs followed by stimulation with LPS for 6 hrs by RT-qPCR analysis; assay type: functional, cell-based
[8] = test system: RAW264.7; experiment: Antiinflammatory activity in LPS-induced mouse RAW264.7 macrophages assessed as suppression of IL-6 mRNA level pretreated at 10 uM for 2 hrs followed by stimulation with LPS for 6 hrs by RT-qPCR analysis; assay type: functional, cell-based
[9] = test system: RAW264.7; experiment: Antiinflammatory activity in LPS-induced mouse RAW264.7 macrophages assessed as suppression of IL-1beta mRNA level pretreated at 10 uM for 2 hrs followed by stimulation with LPS for 6 hrs by RT-qPCR analysis; assay type: functional, cell-based
[10] = test system: RAW264.7; experiment: Antiinflammatory activity in LPS-induced mouse RAW264.7 macrophages assessed as suppression of COX-2 mRNA level pretreated at 10 uM for 2 hrs followed by stimulation with LPS for 6 hrs by RT-qPCR analysis; assay type: functional, cell-based
[11] = test system: RAW264.7; experiment: Antiinflammatory activity in LPS-induced mouse RAW264.7 macrophages assessed as suppression of TNF-alpha mRNA level pretreated for 2 hrs followed by stimulation with LPS for 6 hrs by RT-qPCR analysis; assay type: functional, cell-based
[12] = test system: RAW264.7; experiment: Antiinflammatory activity in LPS-induced mouse RAW264.7 macrophages assessed as suppression of IL-6 mRNA level pretreated for 2 hrs followed by stimulation with LPS for 6 hrs by RT-qPCR analysis; assay type: functional, cell-based
[13] = test system: RAW264.7; experiment: Antiinflammatory activity in LPS-induced mouse RAW264.7 macrophages assessed as suppression of IL-1beta mRNA level pretreated for 2 hrs followed by stimulation with LPS for 6 hrs by RT-qPCR analysis; assay type: functional, cell-based
[14] = test system: RAW264.7; experiment: Antiinflammatory activity in LPS-induced mouse RAW264.7 macrophages assessed as suppression of COX-2 mRNA level pretreated for 2 hrs followed by stimulation with LPS for 6 hrs by RT-qPCR analysis; assay type: functional, cell-based
[15] = Stability in phosphate buffer at pH 7.4 by UV-visible absorption analysis; assay type: physicochemical
[16] = test system: RAW264.7; experiment: Inhibition of LPS-induced IkappaB-alpha degradation in LPS-induced mouse RAW264.7 cells pretreated for 2 hrs followed by stimulation with LPS for 1 hr by Western blot analysis; assay type: cell-based
[17] = biological target: Transcription factor p65 (Mus musculus) (UniProt Q04207); experiment: Inhibition of NFkappaB in LPS-induced mouse RAW264.7 cells assessed as increase in P65 in cytosol pretreated for 2 hrs followed by stimulation with LPS for 1 hr by Western blot analysis; assay type: cell-based
Transcription factor p65 (Mus musculus), sequence (Q04207 whole entry): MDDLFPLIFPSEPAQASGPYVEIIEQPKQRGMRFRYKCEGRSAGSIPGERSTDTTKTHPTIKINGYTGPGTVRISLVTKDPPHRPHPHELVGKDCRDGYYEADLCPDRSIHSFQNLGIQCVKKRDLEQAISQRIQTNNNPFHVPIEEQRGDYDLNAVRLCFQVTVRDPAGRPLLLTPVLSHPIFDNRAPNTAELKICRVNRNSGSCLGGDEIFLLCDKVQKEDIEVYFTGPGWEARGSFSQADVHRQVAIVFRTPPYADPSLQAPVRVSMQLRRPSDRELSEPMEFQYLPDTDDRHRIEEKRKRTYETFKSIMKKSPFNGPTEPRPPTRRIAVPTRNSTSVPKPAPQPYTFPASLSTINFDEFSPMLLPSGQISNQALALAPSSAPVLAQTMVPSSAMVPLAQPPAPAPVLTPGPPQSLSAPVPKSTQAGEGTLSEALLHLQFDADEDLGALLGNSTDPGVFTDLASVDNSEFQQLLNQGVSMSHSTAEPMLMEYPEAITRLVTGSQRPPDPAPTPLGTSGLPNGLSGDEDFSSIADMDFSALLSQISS

[18] = biological target: Transcription factor p65 (Mus musculus) (UniProt Q04207); experiment: Inhibition of NFkappaB in LPS-induced mouse RAW264.7 cells assessed as decrease in P65 in nucleus pretreated for 2 hrs followed by stimulation with LPS for 1 hr by Western blot analysis; assay type: cell-based
[19] = test system: RAW264.7; experiment: Inhibition of NFkappaB in LPS-induced mouse RAW264.7 cells assessed as suppression of binding of NF-kappabeta with DNA in nucleus pretreated for 2 hrs followed by stimulation with LPS for 1 hr by EMSA; assay type: cell-based
[20] = test system: Mus musculus; experiment: Antiinflammatory activity in LPS-induced C57BL/6 mouse assessed as survival rate pretreated at 10 mg/kg, iv for 15 mins followed by LPS stimulation measured for 7 days; assay type: functional; conditions: C57BL/6, iv

COc1cc(/C=C/C(=O)/C=C/c2cc(F)ccc2F)ccc1O
inhibition [1]: Active
Activity [2]: Non-toxic

COc1cc(/C=C/C(=O)/C=C/c2cc([N+](=O)[O-])ccc2F)ccc1O
Activity [2]: Non-toxic

COc1cc(/C=C/C(=O)/C=C/c2ccc([N+](=O)[O-])cc2[N+](=O)[O-])ccc1O
Activity [2]: Non-toxic

COc1cc(/C=C/C(=O)/C=C/c2cc3c(cc2Br)OCO3)ccc1O
inhibition [3]: Dose-dependent effect
inhibition [1]: Active
Activity [2]: Non-toxic
inhibition [4]: Dose-dependent effect
inhibition [5]: Dose-dependent effect
inhibition [6]: Dose-dependent effect
inhibition [7]: Active
inhibition [8]: Active
inhibition [9]: Active
inhibition [10]: Active

COc1cc(/C=C/C(=O)/C=C/c2cc(F)ccc2Br)ccc1O
inhibition [1]: Active
Activity [2]: Non-toxic

COc1cc(/C=C/C(=O)/C=C/c2ccc3ccccc3c2)ccc1O
Activity [2]: Non-toxic

COc1cc(/C=C/C(=O)/C=C/c2c(F)cccc2Br)ccc1O
Activity [2]: Non-toxic

COc1cc(/C=C/C(=O)/C=C/c2cccc(Cl)c2Cl)ccc1O
inhibition [1]: Active
Activity [2]: Non-toxic

COc1cc(/C=C/C(=O)CC(=O)/C=C/c2ccc(O)c(OC)c2)ccc1O [CURCUMIN]
inhibition [1]: Active
Activity [2]: Non-toxic

COc1ccc(/C=C/C(=O)/C=C/c2ccc(O)c(OC)c2)c(F)c1
inhibition [3]: Dose-dependent effect
inhibition [1]: Active
Activity [2]: Non-toxic
inhibition [4]: Dose-dependent effect
inhibition [5]: Dose-dependent effect
inhibition [6]: Dose-dependent effect
inhibition [7]: Active
inhibition [8]: Active
inhibition [9]: Active
inhibition [10]: Active

C=CCOc1ccc(/C=C/C(=O)/C=C/c2ccc(O)c(OC)c2)cc1
Activity [2]: Non-toxic

COc1cc(/C=C/C(=O)/C=C/c2c(C)cc(C)cc2C)ccc1O
inhibition [3]: Dose-dependent effect
inhibition [1]: Active
Activity [2]: Non-toxic
inhibition [4]: Dose-dependent effect
inhibition [5]: Dose-dependent effect
inhibition [6]: Dose-dependent effect
inhibition [7]: Active
inhibition [8]: Active
inhibition [9]: Active
inhibition [10]: Active

COc1cc(/C=C/C(=O)/C=C/c2cccc(O)c2)ccc1O
inhibition [1]: Active
Activity [2]: Non-toxic

COc1cc(/C=C/C(=O)/C=C/c2ccc3c(c2)CCN3)ccc1O
Activity [2]: Non-toxic

COc1cc(/C=C/C(=O)/C=C/c2ccc(Br)c(F)c2)ccc1O
Activity [2]: Non-toxic

COc1cc(/C=C/C(=O)/C=C/c2ccc(OC(C)=O)cc2)ccc1O
Activity [2]: Non-toxic

COc1cc(/C=C/C(=O)/C=C/c2ccccc2C(F)(F)F)ccc1O
inhibition [1]: Active
Activity [2]: Non-toxic

COc1cc(/C=C/C(=O)/C=C/c2ccc(C(F)(F)F)cc2C(F)(F)F)ccc1O
inhibition [1]: Active
Activity [2]: Non-toxic

COc1cc(/C=C/C(=O)/C=C/c2cccc(C(F)(F)F)c2F)ccc1O
inhibition [1]: Active
Activity [2]: Non-toxic

COc1cc(/C=C/C(=O)/C=C/c2ccccc2Cl)ccc1O
Activity [2]: Non-toxic

COc1ccc(Br)c(/C=C/C(=O)/C=C/c2ccc(O)c(OC)c2)c1
inhibition [1]: Active
Activity [2]: Non-toxic

COc1cc(/C=C/C(=O)/C=C/c2ccccc2Br)ccc1O
Activity [2]: Non-toxic

COc1cc(/C=C/C(=O)/C=C/c2cccc(Br)c2)ccc1O
inhibition [1]: Active
Activity [2]: Non-toxic

COc1cc(/C=C/C(=O)/C=C/c2cc(Br)ccc2Br)ccc1O
inhibition [1]: Active
Activity [2]: Non-toxic

COc1ccc(F)c(/C=C/C(=O)/C=C/c2ccc(O)c(OC)c2)c1
Activity [2]: Non-toxic

COc1cc(/C=C/C(=O)/C=C/c2ccccc2[N+](=O)[O-])ccc1O
inhibition [3]: Dose-dependent effect
inhibition [1]: Active
Activity [2]: Non-toxic
inhibition [4]: Dose-dependent effect
inhibition [5]: Dose-dependent effect
inhibition [6]: Dose-dependent effect
inhibition [7]: Active
inhibition [8]: Active
inhibition [9]: Active
inhibition [10]: Active
inhibition [11]: Dose-dependent effect
inhibition [12]: Dose-dependent effect
inhibition [13]: Dose-dependent effect
inhibition [14]: Dose-dependent effect
Stability [15]: Stable
Activity [16]: Dose-dependent effect
Activity [17]: Active
Activity [18]: Active
inhibition [19]: Active
survival at 10 mg/kg [20]: 55%

COc1cc(/C=C/C(=O)/C=C/c2ccc(C(C)C)cc2)ccc1O
inhibition [1]: Active
Activity [2]: Non-toxic

COc1cc(/C=C/C(=O)/C=C/c2ccc(C(F)(F)F)cc2)ccc1O
inhibition [1]: Active
Activity [2]: Non-toxic

COc1cc(/C=C/C(=O)/C=C/c2ccc(O)cc2Br)ccc1O
inhibition [1]: Active
Activity [2]: Non-toxic

COc1cc(/C=C/C(=O)/C=C/c2ccc(Br)cc2)ccc1O
Activity [2]: Non-toxic

COc1cc(/C=C/C(=O)/C=C/c2ccc(OC)c(OC)c2OC)ccc1O
inhibition [3]: Dose-dependent effect
inhibition [1]: Active
Activity [2]: Non-toxic
inhibition [4]: Dose-dependent effect
inhibition [5]: Dose-dependent effect
inhibition [6]: Dose-dependent effect
inhibition [7]: Active
inhibition [8]: Active
inhibition [9]: Active
inhibition [10]: Active
Stability [15]: Stable

COc1cc(/C=C/C(=O)/C=C/c2ccc(OC)c(Br)c2)ccc1O
inhibition [3]: Dose-dependent effect
inhibition [1]: Active
Activity [2]: Non-toxic
inhibition [4]: Dose-dependent effect
inhibition [5]: Dose-dependent effect
inhibition [6]: Dose-dependent effect
inhibition [7]: Active
inhibition [8]: Active
inhibition [9]: Active
inhibition [10]: Active
